ChEMBL document CHEMBL4321785, “Challenges and Opportunities for Therapeutics Targeting the Voltage-Gated Sodium Channel Isoform NaV1.7” (J Med Chem, 2019)
Several values for one entry are separate records, joined by “and”; a condition that tells them apart may be missing. Identical values can stand only once.

Key:
[1] = biological target: Sodium channel protein type 10 subunit alpha (Homo sapiens, UniProt Q9Y5Y9); assay: Inhibition of human Nav1.8 expressed in HEK293 cells by electrophysiology assay; type: cell-based
Homo sapiens [2] = species: Homo sapiens; assay: Selectivity index, ratio of IC50 for inhibition of human Nav1.8 expressed in HEK293 cells by electrophysiology assay to IC50 for inhibition of human Nav1.7 expressed in HEK293 cells by electrophysiology assay; type: cell-based
Homo sapiens [3] = species: Homo sapiens; assay: Selectivity index, ratio of IC50 for inhibition of human Nav1.6 expressed in HEK293 cells by electrophysiology assay to IC50 for inhibition of human Nav1.7 expressed in HEK293 cells by electrophysiology assay; type: cell-based
[4] = biological target: Sodium channel protein type 5 subunit alpha (Homo sapiens, UniProt Q14524); assay: Inhibition of human Nav1.5 expressed in HEK293 cells by electrophysiology assay; type: cell-based
Sequence of Sodium channel protein type 5 subunit alpha (Q14524 whole entry): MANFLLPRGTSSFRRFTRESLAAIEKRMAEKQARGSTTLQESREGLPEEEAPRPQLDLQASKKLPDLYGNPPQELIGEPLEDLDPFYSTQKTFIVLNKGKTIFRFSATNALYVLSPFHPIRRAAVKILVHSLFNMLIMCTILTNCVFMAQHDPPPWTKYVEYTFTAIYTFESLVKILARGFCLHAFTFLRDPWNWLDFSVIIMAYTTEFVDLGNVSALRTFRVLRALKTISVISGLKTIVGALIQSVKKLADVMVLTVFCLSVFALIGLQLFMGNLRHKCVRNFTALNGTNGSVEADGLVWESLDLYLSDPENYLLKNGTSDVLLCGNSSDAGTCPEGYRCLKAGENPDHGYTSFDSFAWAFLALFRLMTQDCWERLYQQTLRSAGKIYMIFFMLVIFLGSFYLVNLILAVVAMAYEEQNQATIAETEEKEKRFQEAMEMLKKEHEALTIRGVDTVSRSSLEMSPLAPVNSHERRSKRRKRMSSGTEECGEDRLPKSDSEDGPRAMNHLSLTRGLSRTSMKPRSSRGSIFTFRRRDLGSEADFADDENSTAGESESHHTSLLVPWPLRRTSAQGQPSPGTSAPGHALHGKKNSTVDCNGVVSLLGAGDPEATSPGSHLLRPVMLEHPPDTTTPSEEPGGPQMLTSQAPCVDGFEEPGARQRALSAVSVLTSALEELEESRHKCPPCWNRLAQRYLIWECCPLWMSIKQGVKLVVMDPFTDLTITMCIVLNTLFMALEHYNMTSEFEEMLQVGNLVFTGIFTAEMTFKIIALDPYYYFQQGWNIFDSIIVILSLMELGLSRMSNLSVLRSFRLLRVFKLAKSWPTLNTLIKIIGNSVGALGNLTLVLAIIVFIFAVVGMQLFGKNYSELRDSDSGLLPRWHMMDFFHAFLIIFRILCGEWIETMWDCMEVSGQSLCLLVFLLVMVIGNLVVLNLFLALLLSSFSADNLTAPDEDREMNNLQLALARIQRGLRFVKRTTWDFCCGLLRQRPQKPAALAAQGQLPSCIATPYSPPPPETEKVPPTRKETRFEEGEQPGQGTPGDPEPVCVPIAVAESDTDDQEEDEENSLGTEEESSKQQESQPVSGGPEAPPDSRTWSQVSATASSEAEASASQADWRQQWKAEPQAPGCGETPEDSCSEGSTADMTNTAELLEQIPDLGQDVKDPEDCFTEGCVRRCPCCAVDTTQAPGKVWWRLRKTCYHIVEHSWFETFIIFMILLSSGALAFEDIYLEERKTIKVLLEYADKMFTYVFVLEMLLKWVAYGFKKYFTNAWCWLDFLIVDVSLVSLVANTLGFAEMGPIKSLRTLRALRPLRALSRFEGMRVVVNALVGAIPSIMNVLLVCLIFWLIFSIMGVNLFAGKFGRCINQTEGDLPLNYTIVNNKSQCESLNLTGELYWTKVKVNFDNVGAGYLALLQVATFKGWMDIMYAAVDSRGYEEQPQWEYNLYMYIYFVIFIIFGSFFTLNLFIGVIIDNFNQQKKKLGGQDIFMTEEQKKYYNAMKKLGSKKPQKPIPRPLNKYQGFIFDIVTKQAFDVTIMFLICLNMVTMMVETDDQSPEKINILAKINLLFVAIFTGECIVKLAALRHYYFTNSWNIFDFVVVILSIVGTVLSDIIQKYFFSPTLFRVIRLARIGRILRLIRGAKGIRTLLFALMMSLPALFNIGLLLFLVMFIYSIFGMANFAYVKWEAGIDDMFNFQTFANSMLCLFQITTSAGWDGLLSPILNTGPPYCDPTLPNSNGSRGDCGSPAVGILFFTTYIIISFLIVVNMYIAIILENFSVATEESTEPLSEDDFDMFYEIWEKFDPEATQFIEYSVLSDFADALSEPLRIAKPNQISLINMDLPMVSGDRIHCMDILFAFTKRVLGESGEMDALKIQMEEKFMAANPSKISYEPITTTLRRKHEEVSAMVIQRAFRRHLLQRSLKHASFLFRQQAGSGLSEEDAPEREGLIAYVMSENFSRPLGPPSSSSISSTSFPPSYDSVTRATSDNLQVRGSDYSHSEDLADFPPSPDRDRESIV

[5] = biological target: Sodium channel protein type 9 subunit alpha (Homo sapiens, UniProt Q15858); assay: Inhibition of human Nav1.7 expressed in HEK293 cells by electrophysiology assay; type: cell-based
Homo sapiens [6] = species: Homo sapiens; assay: Selectivity index, ratio of IC50 for inhibition of human Nav1.5 expressed in HEK293 cells by electrophysiology assay to IC50 for inhibition of human Nav1.7 expressed in HEK293 cells by electrophysiology assay; type: cell-based
Homo sapiens [7] = species: Homo sapiens; assay: Selectivity index, ratio of IC50 for inhibition of human Nav1.2 expressed in HEK293 cells by electrophysiology assay to IC50 for inhibition of human Nav1.7 expressed in HEK293 cells by electrophysiology assay; type: cell-based
[8] = biological target: Sodium channel protein type 8 subunit alpha (Homo sapiens, UniProt Q9UQD0); assay: Inhibition of human Nav1.6 expressed in HEK293 cells by electrophysiology assay; type: cell-based
[9] = biological target: Sodium channel protein type 2 subunit alpha (Homo sapiens, UniProt Q99250); assay: Inhibition of human Nav1.2 expressed in HEK293 cells by electrophysiology assay; type: cell-based
Sequence of Sodium channel protein type 2 subunit alpha (Q99250 whole entry): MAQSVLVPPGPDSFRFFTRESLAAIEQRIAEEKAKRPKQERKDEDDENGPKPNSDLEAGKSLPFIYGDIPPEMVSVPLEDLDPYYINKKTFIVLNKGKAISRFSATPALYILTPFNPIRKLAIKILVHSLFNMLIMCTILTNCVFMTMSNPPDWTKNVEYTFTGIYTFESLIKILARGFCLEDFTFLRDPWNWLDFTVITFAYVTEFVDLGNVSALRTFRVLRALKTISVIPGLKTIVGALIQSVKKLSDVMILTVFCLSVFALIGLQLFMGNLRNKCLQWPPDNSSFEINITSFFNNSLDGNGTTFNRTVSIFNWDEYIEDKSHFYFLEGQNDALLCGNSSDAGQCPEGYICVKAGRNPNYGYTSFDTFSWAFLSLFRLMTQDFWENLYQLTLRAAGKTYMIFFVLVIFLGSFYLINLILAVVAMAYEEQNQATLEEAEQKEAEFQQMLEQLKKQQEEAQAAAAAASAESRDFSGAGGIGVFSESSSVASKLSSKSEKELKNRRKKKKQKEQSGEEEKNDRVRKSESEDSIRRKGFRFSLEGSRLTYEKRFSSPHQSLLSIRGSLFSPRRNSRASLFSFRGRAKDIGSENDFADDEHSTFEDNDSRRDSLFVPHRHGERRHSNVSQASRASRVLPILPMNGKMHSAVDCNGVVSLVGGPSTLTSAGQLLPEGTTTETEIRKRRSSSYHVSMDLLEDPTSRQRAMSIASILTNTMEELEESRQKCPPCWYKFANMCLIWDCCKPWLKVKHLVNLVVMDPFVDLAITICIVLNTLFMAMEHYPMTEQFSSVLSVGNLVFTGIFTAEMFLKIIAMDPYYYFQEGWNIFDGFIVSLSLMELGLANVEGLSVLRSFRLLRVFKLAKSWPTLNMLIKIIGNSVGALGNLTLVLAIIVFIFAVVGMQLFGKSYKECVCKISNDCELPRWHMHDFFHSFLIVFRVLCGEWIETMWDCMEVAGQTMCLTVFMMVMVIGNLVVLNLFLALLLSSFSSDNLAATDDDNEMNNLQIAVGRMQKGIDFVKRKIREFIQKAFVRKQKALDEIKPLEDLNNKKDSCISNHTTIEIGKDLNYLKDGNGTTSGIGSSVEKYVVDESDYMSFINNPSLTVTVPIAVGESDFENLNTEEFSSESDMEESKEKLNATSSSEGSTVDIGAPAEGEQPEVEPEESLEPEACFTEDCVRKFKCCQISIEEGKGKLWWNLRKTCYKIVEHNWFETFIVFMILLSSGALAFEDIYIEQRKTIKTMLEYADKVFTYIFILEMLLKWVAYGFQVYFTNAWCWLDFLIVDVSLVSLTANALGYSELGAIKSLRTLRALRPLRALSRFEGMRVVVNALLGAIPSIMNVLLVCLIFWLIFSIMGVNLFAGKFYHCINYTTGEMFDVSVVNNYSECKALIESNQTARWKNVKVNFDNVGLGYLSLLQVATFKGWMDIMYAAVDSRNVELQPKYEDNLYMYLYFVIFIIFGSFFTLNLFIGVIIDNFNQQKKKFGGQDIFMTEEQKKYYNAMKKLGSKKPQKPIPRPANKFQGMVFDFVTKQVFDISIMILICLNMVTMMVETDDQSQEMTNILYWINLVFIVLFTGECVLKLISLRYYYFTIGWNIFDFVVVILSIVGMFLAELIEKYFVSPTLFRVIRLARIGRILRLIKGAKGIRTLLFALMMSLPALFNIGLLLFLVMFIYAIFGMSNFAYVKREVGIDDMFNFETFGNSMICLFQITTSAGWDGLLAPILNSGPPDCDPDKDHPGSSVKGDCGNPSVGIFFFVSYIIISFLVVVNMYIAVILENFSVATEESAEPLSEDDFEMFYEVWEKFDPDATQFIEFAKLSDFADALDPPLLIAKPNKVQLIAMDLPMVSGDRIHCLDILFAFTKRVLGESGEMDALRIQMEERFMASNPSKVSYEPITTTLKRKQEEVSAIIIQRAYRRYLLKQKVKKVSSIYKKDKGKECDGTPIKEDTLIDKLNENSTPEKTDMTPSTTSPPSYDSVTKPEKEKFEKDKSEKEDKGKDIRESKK

[10] = biological target: Sodium channel protein type 3 subunit alpha (Homo sapiens, UniProt Q9NY46); assay: Inhibition of human Nav1.3 expressed in HEK293 cells by electrophysiology assay; type: cell-based
[11] = biological target: Sodium channel protein type 4 subunit alpha (Homo sapiens, UniProt P35499); assay: Inhibition of human Nav1.4 expressed in HEK293 cells by electrophysiology assay; type: cell-based
[12] = Ratio of unbound plasma concentration in mouse model of capsaicin-induced pain to IC50 for inhibition of mouse Nav1.7 expressed in HEK293 cells by electrophysiology assay; type: cell-based
[13] = biological target: Sodium channel protein type 1 subunit alpha (Homo sapiens, UniProt P35498); assay: Inhibition of human Nav1.1 expressed in HEK293 cells by electrophysiology assay; type: cell-based
[14] = Ratio of unbound plasma concentration in mouse model of histamine-induced pain to IC50 for inhibition of mouse Nav1.7 expressed in HEK293 cells by electrophysiology assay; type: cell-based
[15] = biological target: Sodium channel protein type 9 subunit alpha (Rattus norvegicus, UniProt O08562); assay: Inhibition of rat Nav1.7 expressed in HEK293 cells by electrophysiology assay; type: cell-based
Homo sapiens [16] = species: Homo sapiens; assay: Selectivity index, ratio of IC50 for inhibition of human Nav1.3 expressed in HEK293 cells by electrophysiology assay to IC50 for inhibition of human Nav1.7 expressed in HEK293 cells by electrophysiology assay; type: cell-based
Homo sapiens [17] = species: Homo sapiens; assay: Selectivity index, ratio of IC50 for inhibition of human Nav1.1 expressed in HEK293 cells by electrophysiology assay to IC50 for inhibition of human Nav1.7 expressed in HEK293 cells by electrophysiology assay; type: cell-based
Homo sapiens [18] = species: Homo sapiens; assay: Selectivity index, ratio of IC50 for inhibition of human Nav1.4 expressed in HEK293 cells by electrophysiology assay to IC50 for inhibition of human Nav1.7 expressed in HEK293 cells by electrophysiology assay; type: cell-based
[19] = Unbound fraction in mouse plasma; type: ADME, cell-free
Rattus norvegicus [20] = species: Rattus norvegicus
Rattus norvegicus [21] = species: Rattus norvegicus; remark: listed apart in the source
Rattus norvegicus [22] = species: Rattus norvegicus; remark: listed apart in the source
[23] = Ratio of unbound plasma concentration in mouse model of formalin-induced pain to IC50 for inhibition of mouse Nav1.7 expressed in HEK293 cells by electrophysiology assay; type: cell-based
[24] = Ratio of unbound plasma concentration in mouse model of inherited erythromelalgia to IC50 for inhibition of human Nav1.7 expressed in HEK293 cells by electrophysiology assay; type: cell-based
[25] = Cmax in healthy human; type: ADME; conditions: in vivo

O=C1N(Cc2ccc(C(F)(F)F)o2)c2ccccc2[C@]12COc1cc3c(cc12)OCO3 [FUNAPIDE]
IC50 [1]: 4800 nM | Ratio IC50 (Homo sapiens [2]): 89 | Ratio IC50 (Homo sapiens [3]): 3.1 | IC50 [4]: 84 nM | IC50 [5]: 54 nM | Ratio IC50 (Homo sapiens [6]): 1.5 | Ratio IC50 (Homo sapiens [7]): 11 | IC50 [8]: 170 nM | IC50 [9]: 600 nM

COc1cc(-c2cc(F)cc(Cl)c2)c(F)cc1-n1c(=O)ccc2cc(S(=O)(=O)Nc3ccon3)ccc21
IC50 [10]: > 14000 nM | IC50 ([10]; hek293): > 14000 nM | IC50 [4]: > 14000 nM | IC50 ([4]; hek293): > 14000 nM | IC50 [11]: > 14000 nM | IC50 ([11]; hek293): > 14000 nM | Ratio [12]: 21 | IC50 [13]: > 14000 nM | IC50 ([13]; hek293): > 14000 nM | Ratio [14]: 5.3 and 4 | IC50 [15]: 8600 nM and > 42000 nM | Ratio IC50 (Homo sapiens [16]): > 4300 | Ratio IC50 (Homo sapiens [17]): > 4300 | Ratio IC50 (Homo sapiens [18]): > 4300 | Ratio IC50 (Homo sapiens [6]): > 4300 | Fu [19]: 0.014 | fraction unbound [19]: 0.0017 | IC50 [8]: 1300 nM and > 10000 nM

NC1=N[C@H](O)[C@H]2[C@H]3O[C@]4(O)O[C@@H]([C@@H](O)[C@@]2(N1)[C@@H]4O)[C@]3(O)CO
ED (Rattus norvegicus [20]): 1 to 3 µg/kg | ED (Rattus norvegicus [21]): 1 µg/kg | ED (Rattus norvegicus [22]): 6 µg/kg

CSCC[C@@H]1NC(=O)[C@H](Cc2ccc(O)cc2)NC(=O)[C@H](CCCNC(=N)N)NC(=O)[C@@H](NC(=O)[C@@H](N)CC(=O)O)CSSC[C@@H]2NC(=O)[C@@H]3CSSC[C@@H](C(=O)N[C@@H](C)C(=O)N[C@@H](Cc4c[nH]c5ccccc45)C(=O)N[C@@H](CC(=O)O)C(=O)N[C@@H](Cc4ccccc4)C(=O)N[C@H](C(=O)N[C@@H](Cc4ccccc4)C(=O)N[C@H](C(=O)O)[C@@H](C)O)[C@@H](C)O)NC(=O)[C@H](Cc4ccc(O)cc4)NC(=O)[C@H](CCCCN)NC(=O)[C@H](CCSC)NC(=O)[C@H](CCCCN)NC(=O)[C@H](CCCNC(=N)N)NC(=O)[C@H](CCCCN)NC(=O)[C@H](CSSC[C@H](NC(=O)[C@H](CC(=O)O)NC(=O)CNC(=O)[C@H](Cc4ccccc4)NC1=O)C(=O)N[C@@H](CCC(=O)O)C(=O)N[C@@H](CCCCN)C(=O)N[C@@H](CC(=O)O)C(=O)N[C@@H](CCC(=O)O)C(=O)N[C@@H](CC(=O)O)C(=O)N3)NC(=O)CNC(=O)[C@H](CC(C)C)NC(=O)[C@H](Cc1cnc[nH]1)NC(=O)[C@H](CCCCN)NC2=O
IC50 [11]: 140 nM | IC50 [15]: 1.5 nM | IC50 [9]: 120 nM

O=C(NS(=O)(=O)N1CCC1)c1cc(C2CC2)c(OCC23CC4CC(CC(C4)C2)C3)cc1F
IC50 [4]: 49 nM | IC50 [8]: 480 nM | IC50 [9]: 20 nM

N#Cc1cc(S(=O)(=O)Nc2ncns2)ccc1Oc1ccc(-c2cccc(C(F)(F)F)c2)cc1-c1ccnc(CNCCC2CCNCC2)c1
IC50 [1]: 26000 nM | IC50 [4]: 2600 nM | IC50 [11]: 1500 nM | IC50 [8]: 5.8 nM | IC50 [9]: 3 nM

CC1(COc2cc(F)c(C(=O)NS(=O)(=O)C3CC3)cc2C2CC2)CCC2(CC1)CC2
Ratio [23]: 22 | Ratio IC50 (Homo sapiens [3]): 63 | Ratio [24]: 5.2 | Ratio IC50 (Homo sapiens [17]): 10 | Ratio IC50 (Homo sapiens [6]): 83 | Ratio IC50 (Homo sapiens [7]): 3.3

Nc1[nH]ncc1-c1cc(Cl)ccc1Oc1cc(F)c(S(=O)(=O)Nc2cscn2)cc1Cl [PF-05089771]
Cmax [25]: > 10000 ng/mL
